Measurements reported in patent publication US20230072683A1, “PYRIDO-PYRIMIDIN DERIVATIVES AND PHARMACEUTICAL COMPOSITION, FOR USE IN PREVENTING OR TREATING PI3 KINASE RELATED DISEASES, COMPRISING SAME AS ACTIVE INGREDIENT” (BORYUNG PHARMACEUTICAL CO., LTD, priority 2019, published 2023).

Experiments:
[1] = target: PI3K-δ (PI3K(p1108/p857) (h)) (Homo sapiens, UniProt O00329); assay: Evaluation of inhibitory activity against PI3K-δ (HTRF kinase assay); assay type: biochemical; settings: for inhibition at 0.01 µM: compound concentration 0.01 μM, read-out: EXP_VALUE(% Inhibition) PI3K-δ 0.01 μM; for inhibition at 0.1 µM: compound concentration 0.1 μM, read-out: EXP_VALUE(% Inhibition) PI3K-δ 0.1 μM
Method in brief: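 HTRF read-out (665/620 nm ratio ×10000) used Eu-labelled anti-GST, GST-tagged GRP1 PH domain and streptavidin-allophycocyanin after EDTA/PIP3 stop.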

[2] = target: DNA-PK(h) (Homo sapiens, UniProt P78527); assay: Evaluation of inhibitory activity against DNA-PK (HTRF kinase assay, GST-cMyc-p53 substrate); assay type: biochemical; settings: for inhibition at 0.01 µM: compound concentration 0.01 μM, read-out: EXP_VALUE(% Inhibition) DNA-PK(h) 0.01 μM; for inhibition at 0.1 µM: compound concentration 0.1 μM, read-out: EXP_VALUE(% Inhibition) DNA-PK(h) 0.1 μM
Method in brief: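 Human DNA-PK with 50 μM GST-cMyc-p53 substrate; reaction started with Mg/ATP, run 30 min at room temperature, stopped with EDTA. Phospho-Ser15 p53 detected by HTRF (Eu anti-phospho-Ser15, d2 anti-GST), signal = 10000×(Em 665/Em 620).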

Sequence of PI3K-δ (PI3K(p1108/p857) (h)) (O00329 whole entry, the tested form may be a part): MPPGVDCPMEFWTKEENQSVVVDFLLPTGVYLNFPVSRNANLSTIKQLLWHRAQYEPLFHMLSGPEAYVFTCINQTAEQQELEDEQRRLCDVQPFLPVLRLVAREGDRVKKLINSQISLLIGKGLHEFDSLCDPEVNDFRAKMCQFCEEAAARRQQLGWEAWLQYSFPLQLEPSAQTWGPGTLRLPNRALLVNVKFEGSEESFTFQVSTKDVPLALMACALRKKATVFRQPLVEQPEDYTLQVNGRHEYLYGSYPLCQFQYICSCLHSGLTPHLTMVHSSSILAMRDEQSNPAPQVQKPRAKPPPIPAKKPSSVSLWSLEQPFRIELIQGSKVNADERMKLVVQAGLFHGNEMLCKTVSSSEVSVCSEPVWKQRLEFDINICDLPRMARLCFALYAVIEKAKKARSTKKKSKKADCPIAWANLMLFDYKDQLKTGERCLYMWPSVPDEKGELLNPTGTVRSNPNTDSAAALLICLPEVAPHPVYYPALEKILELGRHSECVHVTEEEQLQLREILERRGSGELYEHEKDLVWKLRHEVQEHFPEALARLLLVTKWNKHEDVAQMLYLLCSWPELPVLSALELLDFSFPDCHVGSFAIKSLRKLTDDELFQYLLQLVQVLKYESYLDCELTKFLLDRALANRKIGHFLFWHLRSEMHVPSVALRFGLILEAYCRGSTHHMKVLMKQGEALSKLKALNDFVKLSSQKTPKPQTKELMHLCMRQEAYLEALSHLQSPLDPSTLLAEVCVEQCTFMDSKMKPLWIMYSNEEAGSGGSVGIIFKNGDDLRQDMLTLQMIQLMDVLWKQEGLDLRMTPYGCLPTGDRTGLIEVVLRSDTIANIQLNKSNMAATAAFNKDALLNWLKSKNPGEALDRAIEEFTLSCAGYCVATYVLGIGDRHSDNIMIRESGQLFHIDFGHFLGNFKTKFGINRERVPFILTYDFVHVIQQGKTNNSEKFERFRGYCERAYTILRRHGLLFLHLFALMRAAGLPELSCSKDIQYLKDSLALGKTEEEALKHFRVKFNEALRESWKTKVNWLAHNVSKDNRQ
Sequence of PI3K-δ (PI3K(p1108/p857) (h)) (P27986 whole entry partner, the tested form may be a part): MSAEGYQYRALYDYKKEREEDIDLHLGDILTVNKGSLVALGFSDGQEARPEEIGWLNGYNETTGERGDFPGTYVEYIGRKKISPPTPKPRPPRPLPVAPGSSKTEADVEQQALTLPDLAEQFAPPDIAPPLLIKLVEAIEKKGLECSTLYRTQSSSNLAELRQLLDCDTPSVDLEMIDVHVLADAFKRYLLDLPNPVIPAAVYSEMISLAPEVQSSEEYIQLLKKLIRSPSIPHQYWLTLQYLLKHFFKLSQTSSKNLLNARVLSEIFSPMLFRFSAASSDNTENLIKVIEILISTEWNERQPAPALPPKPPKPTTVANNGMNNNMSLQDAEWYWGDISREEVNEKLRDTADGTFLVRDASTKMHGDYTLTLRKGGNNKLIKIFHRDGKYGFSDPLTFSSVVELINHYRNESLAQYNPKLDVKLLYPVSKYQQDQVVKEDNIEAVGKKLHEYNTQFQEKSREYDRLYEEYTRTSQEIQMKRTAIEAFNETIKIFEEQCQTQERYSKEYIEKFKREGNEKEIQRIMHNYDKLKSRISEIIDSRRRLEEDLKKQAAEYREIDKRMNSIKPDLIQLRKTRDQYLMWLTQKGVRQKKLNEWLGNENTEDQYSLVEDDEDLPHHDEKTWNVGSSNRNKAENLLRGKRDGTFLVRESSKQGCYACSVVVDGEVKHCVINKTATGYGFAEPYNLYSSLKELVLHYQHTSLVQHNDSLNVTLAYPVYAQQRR

| inhibition at 0.01 µM [1] [%] | inhibition at 0.1 µM [1] [%] | inhibition at 0.01 µM [2] [%] | inhibition at 0.1 µM [2] [%] | SMILES |
| --- | --- | --- | --- | --- |
| 82 | 104 | 17 | 54 | COc1cc(-c2cccc3cc([C@H](C)Nc4ncnc5[nH]ccc(=O)c45)n(-c4ccccc4)c(=O)c23)ccc1Cl [Example 100, (S)-4-((1-(8-(4-chloro-3-methoxyphenyl)-1-oxo-2-phenyl-1,2-dihydroisoquinolin-3-yl)ethyl)amino)pyrido[2,3-d]pyrimidin-5(8H)-one] |
| 90 | 102 | 68 | 94 | CC(C)Oc1ccc(-c2cccc3c(Cl)c([C@H](C)Nc4ncnc5[nH]ccc(=O)c45)n(-c4ccccc4)c(=O)c23)cn1 [Example 101, (S)-4-((1-(4-chloro-8-(6-isopropoxypyridin-3-yl)-1-oxo-2-phenyl-1,2-dihydroisoquinolin-3-yl)ethyl)amino)pyrido[2,3-d]pyrimidin-5(8H)-one] |
| 110 | 105 | 73 | 94 | C[C@H](Nc1ncnc2[nH]ccc(=O)c12)c1c(Cl)c2cccc(-c3cncnc3)c2c(=O)n1-c1ccccc1 [Example 102, (S)-4-((1-(4-chloro-1-oxo-2-phenyl-8-(pyrimidin-5-yl)-1,2-dihydroisoquinolin-3-yl)ethyl)amino)pyrido[2,3-d]pyrimidin-5(8H)-one] |
| 91 | 103 | 91 | 101 | COc1cc(-c2cccc3c(Cl)c([C@H](C)Nc4ncnc5[nH]ccc(=O)c45)n(-c4ccccc4)c(=O)c23)cc(OC)c1OC [Example 103, (S)-4-((1-(4-chloro-1-oxo-2-phenyl-8-(3,4,5-trimethoxyphenyl)-1,2-dihydroisoquinolin-3-yl)ethyl)amino)pyrido[2,3-d]pyrimidin-5(8H)-one] |
| 63 | 95 | 16 | 66 | C[C@H](Nc1ncnc2[nH]ccc(=O)c12)c1c(Cl)c2cccc(-c3cc(F)cc(Cl)c3)c2c(=O)n1-c1ccccc1 [Example 104, (S)-4-((1-(4-chloro-8-(3-chloro-5-fluorophenyl)-1-oxo-2-phenyl-1,2-dihydroisoquinolin-3-yl)ethyl)amino)pyrido[2,3-d]pyrimidin-5(8H)-one] |
| 75 | 103 | 12 | 75 | C[C@H](Nc1ncnc2[nH]ccc(=O)c12)c1c(Cl)c2cccc(-c3ccc(-c4ccncc4)cc3)c2c(=O)n1-c1ccccc1 [Example 105, (S)-4-((1-(4-chloro-1-oxo-2-phenyl-8-(4-(pyridin-4-yl)phenyl)-1,2-dihydroisoquinolin-3-yl)ethyl)amino)pyrido[2,3-d]pyrimidin-5(8H)-one] |
| 53 | 87 | 14 | 59 | C[C@H](Nc1ncnc2[nH]ccc(=O)c12)c1c(Cl)c2cccc(-c3cccc(F)c3Cl)c2c(=O)n1-c1ccccc1 [Example 106, (S)-4-((1-(4-chloro-8-(2-chloro-3-fluorophenyl)-1-oxo-2-phenyl-1,2-dihydroisoquinolin-3-yl)ethyl)amino)pyrido[2,3-d]pyrimidin-5(8H)-one] |
| 59 | 91 | 24 | 54 | C[C@H](Nc1ncnc2[nH]ccc(=O)c12)c1c(Cl)c2cccc(-c3cc(F)ccc3Cl)c2c(=O)n1-c1ccccc1 [Example 107, (S)-4-((1-(4-chloro-8-(2-chloro-5-fluorophenyl)-1-oxo-2-phenyl-1,2-dihydroisoquinolin-3-yl)ethyl)amino)pyrido[2,3-d]pyrimidin-5(8H)-one] |
| 99 | 102 | 7 | 66 | C[C@H](Nc1ncnc2[nH]ccc(=O)c12)c1c(Cl)c2cccc(-c3cc(O)cc(F)c3)c2c(=O)n1-c1ccccc1 [Example 108, (S)-4-((1-(4-chloro-8-(3-fluoro-5-hydroxyphenyl)-1-oxo-2-phenyl-1,2-dihydroisoquinolin-3-yl)ethyl)amino)pyrido[2,3-d]pyrimidin-5(8H)-one] |
| 61 | 94 | 10 | 65 | Cc1c(F)cccc1-c1cccc2c(Cl)c([C@H](C)Nc3ncnc4[nH]ccc(=O)c34)n(-c3ccccc3)c(=O)c12 [Example 109, (S)-4-((1-(4-chloro-8-(3-fluoro-2-methylphenyl)-1-oxo-2-phenyl-1,2-dihydroisoquinolin-3-yl)ethyl)amino)pyrido[2,3-d]pyrimidin-5(8H)-one] |
| 93 | 97 | 57 | 91 | Cc1ncccc1-c1cccc2c(Cl)c([C@H](C)Nc3ncnc4[nH]ccc(=O)c34)n(-c3ccccc3)c(=O)c12 [Example 110, (S)-4-((1-(4-chloro-8-(2-methylpyridin-3-yl)-1-oxo-2-phenyl-1,2-dihydroisoquinolin-3-yl)ethyl)amino)pyrido[2,3-d]pyrimidin-5(8H)-one] |
| 80 | 96 | 87 | 98 | C[C@H](Nc1ncnc2[nH]ccc(=O)c12)c1c(Cl)c2cccc(-c3ccc4ncn(C)c4c3)c2c(=O)n1-c1ccccc1 [Example 111, (S)-4-((1-(4-chloro-8-(1-methyl-1H-benzo[d]imidazol-6-yl)-1-oxo-2-phenyl-1,2-dihydroisoquinolin-3-yl)ethyl)amino)pyrido[2,3-d]pyrimidin-5(8H)-one] |
| 92 | 96 | 78 | 97 | C[C@H](Nc1ncnc2[nH]ccc(=O)c12)c1c(Cl)c2cccc(-c3cnc(N(C)C)nc3)c2c(=O)n1-c1ccccc1 [Example 112, (S)-4-((1-(4-chloro-8-(2-(dimethylamino)pyrimidin-5-yl)-1-oxo-2-phenyl-1,2-dihydroisoquinolin-3-yl)ethyl)amino)pyrido[2,3-d]pyrimidin-5(8H)-one] |
| 82 | 93 | 79 | 98 | C[C@H](Nc1ncnc2[nH]ccc(=O)c12)c1c(Cl)c2cccc(-c3ccc4nccn4c3)c2c(=O)n1-c1ccccc1 [Example 113, (S)-4-((1-(4-chloro-8-(imidazo[1,2-a]pyridin-6-yl)-1-oxo-2-phenyl-1,2-dihydroisoquinolin-3-yl)ethyl)amino)pyrido[2,3-d]pyrimidin-5(8H)-one] |
| 87 | 95 | 77 | 97 | C[C@H](Nc1ncnc2[nH]ccc(=O)c12)c1c(Cl)c2cccc(-c3ccc4c(c3)ncn4C)c2c(=O)n1-c1ccccc1 [Example 114, (S)-4-((1-(4-chloro-8-(1-methyl-1H-benzo[d]imidazol-5-yl)-1-oxo-2-phenyl-1,2-dihydroisoquinolin-3-yl)ethyl)amino)pyrido[2,3-d]pyrimidin-5(8H)-one] |
| 78 | 96 | 15 | 72 | C[C@H](Nc1ncnc2[nH]ccc(=O)c12)c1c(Cl)c2cccc(-c3ccc(-c4ccccc4)nc3)c2c(=O)n1-c1ccccc1 [Example 115, (S)-4-((1-(4-chloro-1-oxo-2-phenyl-8-(6-phenylpyridin-3-yl)-1,2-dihydroisoquinolin-3-yl)ethyl)amino)pyrido[2,3-d]pyrimidin-5(8H)-one] |
| 73 | 101 | 32 | 91 | C[C@H](Nc1ncnc2[nH]ccc(=O)c12)c1c(Cl)c2cccc(-c3ccc4c(ccn4C)c3)c2c(=O)n1-c1ccccc1 [Example 116, (S)-4-((1-(4-chloro-8-(1-methyl-1H-indol-5-yl)-1-oxo-2-phenyl-1,2-dihydroisoquinolin-3-yl)ethyl)amino)pyrido[2,3-d]pyrimidin-5(8H)-one] |
| 82 | 89 | 86 | 99 | C[C@H](Nc1ncnc2[nH]ccc(=O)c12)c1c(Cl)c2cccc(-c3ccco3)c2c(=O)n1-c1ccccc1 [Example 117, (S)-4-((1-(4-chloro-8-(furan-2-yl)-1-oxo-2-phenyl-1,2-dihydroisoquinolin-3-yl)ethyl)amino)pyrido[2,3-d]pyrimidin-5(8H)-one] |
| 29 | 81 | 26 | 74 | C[C@H](Nc1ncnc2[nH]ccc(=O)c12)c1c(Cl)c2cccc(-c3ccc(C4CCC4)cc3)c2c(=O)n1-c1ccccc1 [Example 118, (S)-4-((1-(4-chloro-8-(4-cyclobutylphenyl)-1-oxo-2-phenyl-1,2-dihydroisoquinolin-3-yl)ethyl)amino)pyrido[2,3-d]pyrimidin-5(8H)-one] |
| 84 | 82 | 96 | 101 | Cc1cncc(-c2cccc3c(Cl)c([C@H](C)Nc4ncnc5[nH]ccc(=O)c45)n(-c4ccccc4)c(=O)c23)c1 [Example 119, (S)-4-((1-(4-chloro-8-(5-methylpyridin-3-yl)-1-oxo-2-phenyl-1,2-dihydroisoquinolin-3-yl)ethyl)amino)pyrido[2,3-d]pyrimidin-5(8H)-one] |
